Experimental data as given in patent US9834558B2, “Substituted bridged urea analogs as sirtuin modulators” (GLAXOSMITHKLINE LLC, priority 2013, dated 2017).
Structures can show the parent of a compound that is named as a salt.

Biological target: T1, SIRT1 (Homo sapiens, UniProt Q96EB6)
T1 sequence (Q96EB6 1-747): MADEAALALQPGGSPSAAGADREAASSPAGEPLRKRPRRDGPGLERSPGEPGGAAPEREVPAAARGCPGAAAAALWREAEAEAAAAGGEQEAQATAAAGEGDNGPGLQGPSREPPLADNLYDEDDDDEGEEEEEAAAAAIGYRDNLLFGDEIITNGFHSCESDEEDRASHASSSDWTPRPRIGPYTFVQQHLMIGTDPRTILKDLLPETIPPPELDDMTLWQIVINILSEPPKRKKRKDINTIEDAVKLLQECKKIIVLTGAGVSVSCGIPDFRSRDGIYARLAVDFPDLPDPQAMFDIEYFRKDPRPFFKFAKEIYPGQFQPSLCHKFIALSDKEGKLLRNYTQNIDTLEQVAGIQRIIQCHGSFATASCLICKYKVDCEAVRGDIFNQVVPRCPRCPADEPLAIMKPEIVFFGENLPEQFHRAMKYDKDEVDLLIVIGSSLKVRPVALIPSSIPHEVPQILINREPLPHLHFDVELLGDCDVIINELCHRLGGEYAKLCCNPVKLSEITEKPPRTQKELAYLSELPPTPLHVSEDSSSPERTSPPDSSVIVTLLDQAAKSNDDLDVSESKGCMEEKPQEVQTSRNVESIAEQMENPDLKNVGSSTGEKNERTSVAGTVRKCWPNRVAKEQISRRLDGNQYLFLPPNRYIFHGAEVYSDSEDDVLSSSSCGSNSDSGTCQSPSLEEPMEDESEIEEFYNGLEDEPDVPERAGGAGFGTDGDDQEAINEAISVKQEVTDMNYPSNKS
Assay: Trp mass spectrometry assay of SIRT1 activation
Assay type: biochemical
Details: for TRP Activity (EC1.5) / Emax: Trp peptide assay; for TRP Activity (EC1.5): EC1.5 = concentration that results in 150% activation of SIRT1; for Emax: maximum activity relative to control (100%), read-out: TRP MAX RESP (percent maximum fold activation); for Tryp AVG EC1.5 (μM): Trp mass spectrometry assay
Summary of the method: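 Activation read-out: mass-spec measurement of O-acetyl-ADP-ribose or deacetylated Trp peptide versus compound-free controls, giving EC1.5 and Percent Maximum Activation. Reactions ran 25 min at 25 °C, pH 7.5, with 120 μM βNAD+, 0.5 μM acetylated p53-derived peptide and 10 nM His-tagged SIRT1.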

[1] = EC1.5 = concentration of test compound that results in 150% activation of SIRT1
[2] = concentration of test compound giving 150% activation of SIRT1

TRP Activity (EC1.5)	Emax [%]	Tryp AVG EC1.5 (μM) [1]	Tryp AVG EC1.5 (μM) [2]	Structure (SMILES)
C (C (EC1.5>25 μM))	< 150			Cc1cc(-c2ccc3c(n2)N(C(=O)NCCc2cccnc2)[C@H]2CCN3C2)ccn1 [(9S)-5-(2-methylpyridin-4-yl)-N-[2-(pyridin-3-yl)ethyl]-1,6,8-triazatricyclo[7.2.1.0 {2,7}]dodeca-2(7),3,5-triene-8-carboxamide hydrochloride]
		B (B (EC1.5 1-25 μM))		O=C(Nc1cncc(F)c1)N1c2nc(-c3ccnc(N4CC[C@@H](F)C4)c3)ccc2N2CC[C@H]1C2 [Example 464]
A (A (EC1.5<1 μM))	> 150			O=C(Nc1ccccn1)N1c2nc(-c3ccnc(C(F)(F)F)c3)ccc2N2CCC[C@H]1C2 [(9S)-N-(pyridin-2-yl)-5-[2-(trifluoromethyl)pyridin-4-yl]-1,6,8-triazatricyclo[7.3.1.0 {2,7}]trideca-2(7),3,5-triene-8-carboxamide]
		B (B (EC1.5 1-25 μM))		Cc1ccc(-c2ccc(NC(=O)N3c4nc(-c5cccc(C(F)(F)F)c5)ccc4N4CC[C@H]3C4)cc2)o1 [Example 582]
B (B (EC1.5 1-25 μM))	> 150			Cc1ncc(-c2ccc3c(n2)N(C(=O)Nc2cnccn2)[C@H]2CCN3C2)o1 [(9S)-5-(2-methyl-1,3-oxazol-5-yl)-N-(pyrazin-2-yl)-1,6,8-triazatricyclo[7.2.1.0 {2,7}]dodeca-2(7),3,5-triene-8-carboxamide]
			A (A (EC1.5<1 μM))	COc1cncc(NC(=O)N2c3nc(-c4cccc(N5CCCC5)c4)ccc3N3CC[C@H]2C3)n1 [Example 366]
A (A (EC1.5<1 μM))	> 150			O=C(Nc1cncnc1)N1c2nc(-c3cncc(C(F)(F)F)c3)ccc2N2CCC[C@H]1C2 [(9S)-N-(pyrimidin-5-yl)-5-[5-(trifluoromethyl)pyridin-3-yl]-1,6,8-triazatricyclo[7.3.1.0 {2,7}]trideca-2(7),3,5-triene-8-carboxamide]
B (B (EC1.5 1-25 μM))	> 150			Cc1ccc(-c2ccc3c(n2)N(C(=O)Nc2cccc4cnccc24)[C@H]2CCN3C2)cn1 [(9S)-N-(isoquinolin-5-yl)-5-(6-methylpyridin-3-yl)-1,6,8-triazatricyclo[7.2.1.0 {2,7}]dodeca-2,4,6-triene-8-carboxamide]
			A (A (EC1.5<1 μM))	O=C(Nc1ccc(F)cn1)N1c2nc(N3CCCC(C(F)(F)F)C3)ccc2N2CCC[C@H]1C2 (some centres unmarked) [Example 359]
B (B (EC1.5 1-25 μM))	> 150			O=C(Nc1cnccn1)N1c2nc(N3CCO[C@H](C(F)(F)F)C3)ccc2N2CC[C@H]1C2 [drawing 1226, (9S)-N-(pyrazin-2-yl)-5-[(2S)-2-(trifluoromethyl)morpholin-4-yl]-1,6,8-triazatricyclo[7.2.1.0 {2,7}]dodeca-2(7),3,5-triene-8-carboxamide]
B (B (EC1.5 1-25 μM))	> 150			O=C(c1ccc2c(n1)N(C(=O)Nc1ccccn1)[C@H]1CCN2C1)N1CCC(F)(F)C1 [(9S)-5-[(3,3-difluoropyrrolidin-1-yl)carbonyl]-N-(pyridin-2-yl)-1,6,8-triazatricyclo[7.2.1.0 {2,7}]dodeca-2(7),3,5-triene-8-carboxamide]
A (A (EC1.5<1 μM))	> 150			O=C(NCC(F)(F)F)c1ccc2c(n1)N(C(=O)Nc1ccccn1)[C@H]1CCN2C1 [(9S)-8-N-(pyridin-2-yl)-5-N-(2,2,2-trifluoroethyl)-1,6,8-triazatricyclo[7.2.1.0 {2,7}]dodeca-2(7),3,5-triene-5,8-dicarboxamide]
C (C (EC1.5>25 μM))	< 150			Cc1cc(-c2ccc3c(n2)N(C(=O)NCCc2ccccn2)[C@H]2CCN3C2)ccn1 [(9S)-5-(2-methylpyridin-4-yl)-N-[2-(pyridin-2-yl)ethyl]-1,6,8-triazatricyclo[7.2.1.0 {2,7}]dodeca-2(7),3,5-triene-8-carboxamide hydrochloride]
			B (B (EC1.5 1-25 μM))	Cc1n[nH]cc1-c1ccc2c(n1)N(C(=O)Nc1ccccn1)[C@H]1CCN2C1 [Example 370]
